Results published in publication PMC13453949 (Journal of Advanced Research, 2025).
In brackets after ≈: the same amount, converted by molar mass. Entries after “also recorded” stand apart in the source; their conditions may differ. Where two headings read alike, the source gives them in different places.

Legend:
[1] = tested on: C. albicans biofilm; assay: Biofilm formation, total biofilm biomass by crystal violet staining; format: cell-based; details: Candida albicans, 24 h, read-out: Inhibition of early biofilm formation
[2] = tested on: C. albicans; assay: microbe, parasite or virus in culture; format: cell-based, Candida albicans; details: for MIC: Candida albicans, read-out: Minimum inhibitory concentration (MIC); for Fungal recovery after treatment: after 36 h of treatment
[3] = tested on: 293 T cells; details: 24 h; for Cell survival rate: 128 μg/mL (highest tested)
[4] = tested on: C. albicans; assay: Checkerboard dilution, fractional inhibitory concentration index; format: cell-based, Candida albicans
[5] = tested on: Raw264.7 cells; details: 24 h; for Cell survival rate: 128 μg/mL (highest tested)
[6] = tested on: ergosterol content in C. albicans; assay: Ergosterol content determination; format: cell-based, Candida albicans; details: 16 μL/mL, compared to untreated control (CK)
[7] = tested on: C. albicans; assay: Murine oral candidiasis model; format: in vivo, BALB/c mice; details: for Hemoglobin (HGB) level / Platelet (PLT) counts / White blood cell count (WBC): relative to Can group
[8] = tested on: C. albicans mature biofilm; assay: Mature biofilm, metabolic activity by XTT reduction; format: cell-based; details: Candida albicans, 24 h, read-out: Inhibition rate of mature biofilms
[9] = tested on: C. albicans hyphal formation; format: cell-based, Candida albicans; details: RPMI-1640 + 10 % FBS, 24 h
[10] = tested on: KB (human oral epidermoid carcinoma cells); details: 24 h; for Cell survival rate: 128 μg/mL (highest tested)
[11] = tested on: C. albicans; format: cell-based, Candida albicans; details: α-hederin 32 μg/mL; vs untreated control (CK)
[12] = tested on: C. albicans; assay: Antifungal activity test of the 17 candidate compounds against C. albicans; format: cell-based, Candida albicans; details: tested at 12 h, 24 h and 36 h
[13] = tested on: C. albicans cell surface hydrophobicity; format: cell-based, Candida albicans; details: 128 μg/mL
[14] = threshold concentration 1024 μg/mL

With `OC(Cn1cncn1)(Cn1cncn1)c1ccc(F)cc1F` [Fluconazole, reference compound] the inhibition at 256 µg/mL [1] was 57%, the “Fungal growth at highest concentration” value ([2]; 128 μg/mL, after 24 h) was “persistent fungal growth” and the MIC [2] was greater than 128 µg/mL. The “Fungal recovery after treatment” value [2] was “regrowth”, the Cell survival rate [3] was “above 80%” and the “Concentration in the combination showing additive effect” value [4] was 1 µg/mL. The Cell survival rate [5] was “above 80%”, the “Reduction of ergosterol content” value [6] was 45% and the “Hemoglobin (HGB) level” value ([7]; 128 μg/mL) was “restored”. The “Platelet (PLT) counts” value ([7]; 128 μg/mL) was “normalized”, the “White blood cell count (WBC)” value ([7]; 128 μg/mL) was “restored” and the Body weight change ([7]; mouse, in vivo) was “rebound in body weight”. The inhibition at 128 µg/mL [8] was 17%, the Hyphal formation ([9]; 256 μg/mL) was “failed to achieve complete suppression” and the “Concentration reducing hyphal formation” value [9] was greater than 32 µg/mL. For the same compound, the Cell survival rate [10] was “above 80%” and the “Internal ultrastructure (TEM)” value [11] was “no comparable ultrastructural damage”.
For `CC(C)=CCC[C@](C)(O[C@@H]1O[C@H](CO[C@@H]2O[C@@H](CO)[C@H](O)[C@H]2O[C@@H]2OC[C@@H](O)[C@H](O)[C@H]2O)[C@@H](O)[C@H](O)[C@H]1O)[C@H]1CC[C@]2(C)[C@@H]1[C@H](O)C[C@@H]1[C@@]3(C)CC[C@H](O[C@@H]4O[C@H](CO)[C@@H](O)[C@H](O)[C@H]4O[C@@H]4O[C@H](CO)[C@@H](O)[C@H](O)[C@H]4O)C(C)(C)[C@@H]3CC[C@]12C` [Ginsenoside Ra2], the “Anti − C. albicans activity” value [12, 14] was greater than 1024 µg/mL.
With `C[C@]12CCC[C@@]3(COC1=O)[C@@H]1CC[C@@H]4C[C@@]1(CC[C@@H]32)C[C@@]4(C)O` [Hypodiolide A] the “Anti − C. albicans activity” value [12, 14] was greater than 1024 µg/mL.
In the case of `C=C(C)C(O)COc1c2occc2cc2ccc(=O)oc12` (centres unmarked) [Isogosferol], the “Anti − C. albicans activity” value [12, 14] is reported as greater than 1024 µg/mL.
For `COc1cc2ccc(=O)oc2cc1O` [Scopoletol], the “Anti − C. albicans activity” value [12, 14] was greater than 1024 µg/mL.
With `Oc1ccc2ccccc2c1N=Nc1ccc(N=Nc2ccccc2)cc1` [Sudam Ⅲ] the “Anti − C. albicans activity” value [12, 14] was greater than 1024 µg/mL.
`C[C@@H]1O[C@@H](O[C@H]2[C@H](O[C@H]3CC[C@@]4(C)[C@@H](CC[C@]5(C)[C@@H]4CC=C4[C@@H]6CC(C)(C)CC[C@]6(C(=O)O)CC[C@]45C)[C@]3(C)CO)OC[C@H](O)[C@@H]2O)[C@H](O)[C@H](O)[C@H]1O` [α-Hederin] was tested, and the inhibition at 32 µg/mL [1] was 55%, the inhibition at 256 µg/mL [1] was 75% and the C. albicans growth ([2]; 32 μg/mL) was “completely inhibited”. The MIC [2] was 32 µg/mL (≈ 42.6 µM), the “Fungal recovery after treatment” value [2] was “no fungal recovery observed” and the “Growth inhibition of C. albicans” value ([2]; at concentrations above 8 μg/mL within 24 h) was 50%. For the same compound, the Cell survival rate [3] was “above 80%”, the “Concentration in the combination showing additive effect” value ([4]; checkerboard, fluconazole plus α-hederin) was 16 µg/mL and the Cell survival rate [5] was “above 80%”. The “Reduction of ergosterol content” value [6] was 90%, the “Anti − C. albicans activity” value [12, 14] was “below 128 μg/mL” and the “Hemoglobin (HGB) level” value ([7]; 32 μg/mL) was “restored”. The “Platelet (PLT) counts” value ([7]; 32 μg/mL) was “normalized”, the “White blood cell count (WBC)” value ([7]; 32 μg/mL) was “restored” and the “C. albicans colony count on tongue” value ([7]; 128 μg/mL in drinking water, 5 days (128Hed)) was “no colonies were detected”. The “Hemoglobin (HGB) level” value ([7]; 128 μg/mL) was “restored”, the “Platelet (PLT) counts” value ([7]; 128 μg/mL) was “normalized” and the “White blood cell count (WBC)” value ([7]; 128 μg/mL) was “restored”. The Body weight change ([7]; mouse, in vivo) was “rebound in body weight; also recorded: slowest initial weight loss, followed by a consistent increase”, the “Fungal colonization of tongue (PAS staining)” value ([7]; mouse, in vivo) was “markedly reduced fungal colonization” and the “Fungal load on tongue (colony counts)” value ([7]; α-hederin-treated group, dose not stated) was “significant decrease in fungal load”. For the same compound, the “Reduction of cell surface hydrophobicity (CSH)” value [13] was 85%, the inhibition at 128 µg/mL [8] was 20% and the Hyphal formation ([9]; 128 μg/mL) was “partial inhibition”. The Hyphal formation ([9]; 256 μg/mL) was “completely inhibit”, the Cell survival rate [10] was “above 80%” and the “Internal ultrastructure (TEM)” value [11] was “severe cytoplasmic content loss and vacuolization, thinning and irregularity of cell walls/membranes and membrane discontinuities”.
With Elemicin the “Minimum inhibitory concentration (MIC)” value ([2]; C. albicans CMCC(F)98001, YEPD, 37 °C, 24 h and 36 h) was 16 μL/mL, the “Inhibition of C. albicans growth” value ([2]; at concentrations exceeding 0.5 μL/mL) was 50 % −70 and the “Concentration with significant toxicity” value [3] was “higher than 8 μL/mL”. For the same compound, the “Concentration with significant toxicity” value [5] was “higher than 8 μL/mL”, the “Anti − C. albicans activity” value [12] was less than 128 μL/mL and the “Anti − C. albicans activity” value [12, 14] was “below 128 μg/mL”. For the same compound, the “Concentration with significant toxicity” value [10] was “higher than 8 μL/mL”.
Evodiamine was tested, and the “Anti − C. albicans activity” value [12, 14] was greater than 1024 µg/mL.
With Strictosamide the “Anti − C. albicans activity” value [12, 14] was greater than 1024 µg/mL.
For Triptofordin, the “Anti − C. albicans activity” value [12, 14] was greater than 1024 µg/mL.
